# Measurements published in patent US6130229A, “Tricyclic compounds having activity as RAS-FPT inhibitors” (Schering Corporation, priority 1997, dated 2000).
# pIC50: −log10 of the molar value.
# Target: farnesyl protein transferase
# Assay: Inhibition of farnesyl protein transferase (test of WO 95/10514)
# Assay type: biochemical
# Details: percent inhibition relative to DMSO vehicle control, IC50 estimated
# Description: The compounds of the invention can be tested by standard methods, for example by those published in published PCT application WO 95/10514 published Apr. 20, 1995 (starting at page 61), the disclosure of which is hereby incorporated herein by reference. Particularly relevant assays and studies include In vitro enzyme assays, Cell-Based Assays, Cell Mat Assays, and In Vivo Anti-Tumor Studies.
# Such Assays and Studies indicate that compounds of the Formula I above are selective inhibitors of Ras-FPT and can be used as anti-tumor agents. The following Table presents IC50 values obtained in the test for Inhibition of farnesyl protein transferase, reported in published PCT application WO 95/10514. Percent inhibition was calculated relative to the DMSO vehicle control, and an IC50 value was estimated.
row,pIC50,Compound
1,6.85,"N#CN=C(NCc1ccc[n+]([O-])c1)N1CCN(C2c3ccc(Cl)cc3SCc3cccnc32)CC1 (centres unmarked) [Example 21, 4-(8-Chloro-5,11-dihydro[1]benzothiepino[4,3-b]pyridin-11-yl)-N-cyano-N'-(3-pyridinylmethyl)-1-piperazine-carboximidamide N1-oxide]"
2,6.12,"O=C(Cc1ccncc1)N1CCC(=C2c3ccc(Cl)cc3OCc3cccnc32)CC1 [Example 5, 4-(8-Chloro-5,11-dihydro[1]benz-oxepino[4,3-b]pyridin-11-ylidene)-1-(4-pyridine-acetyl)piperidine]"
3,5.96,"O=C(CC1CCNCC1)N1CCN(C2c3ccc(Cl)cc3SCc3cccnc32)CC1 (centres unmarked) [Example 12A, 4-(8-Chloro-5,11-dihydro-[1]benzothiepino[4,3-b]pyridin-11-yl)-1-(4-piperidinyl-acetyl)piperazine]"
4,5.42,O=C(Cc1ccccc1[N+](=O)[O-])C(=O)N1CCN(C2c3ccc(Cl)cc3SCc3cccnc32)CC1 (centres unmarked) [Example 13]
5,5.68,"CN1CCC(CC(=O)N2CCN(C3c4ccc(Cl)cc4SCc4cccnc43)CC2)CC1 (centres unmarked) [Example 10, 4-(8-Chloro-5,11-dihydro-[1]benzothiepino[4,3-b]pyridin-11-yl)-1-(1-methyl-4-piperidine-acetyl)piperazine]"
6,< 6.40,"O=C(Cc1cc[n+]([O-])cc1)N1CCC(=C2c3cc(Br)c(Cl)cc3OCc3cccnc32)CC1 [Example 7A, 4-(9-Bromo-8-chloro-5,11-dihydro[1]benzoxepino[4,3-b]pyridin-11-ylidene)-1-(4-pyridine-acetyl)piperidine N1-oxide]"
7,< 6.42,"NC(=O)N1CCC(CC(=O)N2CCN(C3c4ccc(Cl)cc4[S+]([O-])Cc4cccnc43)CC2)CC1 (centres unmarked) [Example 32, 4-[2-[4-(8-Chloro-5,11-dihydro-[1]benzothiepino[4,3-b]pyridin-11-yl)-1-piperazinyl]-2-oxoethyl]-1-piperidinecarboxamide 6-oxide]"
8,< 5.96,"CC(C)(C)OC(=O)N1CCC(CC(=O)N2CCN(C3c4ccc(Cl)cc4SCc4cccnc43)CC2)CC1 (centres unmarked) [Example 11A, 1,1-Dimethylethyl 4-[2-[4-(8-chloro-5,11-dihydro-[1]benzothiepino[4,3-b]pyridin-11-yl)-1-piperazinyl]2-oxoethyl]-1-piperidinecarboxylate]"
9,5.96,"CSC(=NC#N)N1CCN(C2c3ccc(Cl)cc3N(C)Cc3cccnc32)CC1 (centres unmarked) [Example 36, Methyl 4-(8-chloro-6,11-dihydro-6-methyl-5H-pyrido[3,2-c][1]benzazepin-11-yl)-N-cyano-1-piperazinecarboximidothioate]"
10,< 6.38,"N#CC=C(c1ccc(F)cc1)N1CCC(=C2c3ccc(Cl)cc3SCc3cccnc32)CC1 [Example 33, 3-[4-(8-Chloro-5,11-dihydro-[1]benzothiepino[4,3-b]pyridin-11-ylidene)-piperidin-1-yl]-3-(4'-fluorophenyl)-2-propene-nitrile]"
11,5.64,"O=C(Cc1cccnc1)N1CCC(=C2c3ccc(Cl)cc3OCc3cccnc32)CC1 [Example 6, 4-(8-Chloro-5,11-dihydro[1]benz-oxepino[4,3-b]pyridin-11-ylidene)-1-(3-pyridine-acetyl)piperidine]"
12,< 5.44,"CN1Cc2cccnc2C(N2CCN(C(=O)CC3CCN(C(=O)OC(C)(C)C)CC3)CC2)c2ccc(Cl)cc21 (centres unmarked) [Example 38, 1,1-Dimethylethyl 4-[2-[4-(8-chloro-6,11-dihydro-6-methyl-5H-pyrido[3,2-c][1]benzazepin-11-yl)-1-piperazinyl]2-oxoethyl]-1-piperidine-carboxylate]"
13,7.37,"N#CNC(=NCc1ccncc1)N1CCC(=C2c3ccc(Cl)cc3SCc3cccnc32)CC1 [Example 23, 4-(8-Chloro-5,11-dihydro[1]benzothiepino[4,3-b]pyridin-11-ylidene)-N-cyano-N'-(4-pyridinylmethyl)-1-piperidine-carboximidamide]"
14,6.96,"O=C(Cc1cc[n+]([O-])cc1)N1CCC(=C2c3ccc(Cl)cc3OCc3cc(Br)cnc32)CC1 [Example 4, 4-(3-Bromo-8-chloro-5,11-dihydro[1]benzoxepino[4,3-b]pyridin-11-ylidene)-1-(4-pyridine-acetyl)piperidine N1-oxide]"
15,6.04,"NC(=O)N1CCC(CC(=O)N2CCC(=C3c4ccc(Cl)cc4SCc4cccnc43)CC2)CC1 [Example 15B, 4-[2-[4-(8-Chloro-5,11-dihydro-[1]benzothiepino[4,3-b]pyridin-11-ylidene)-1-piperidinyl]-2-oxoethyl]-1-piperidinecarboxamide]"

row,Compound,pIC50
1,"O=C(Cc1cc[n+]([O-])cc1)N1CCN(C2c3ccc(Cl)cc3[S+]([O-])Cc3cccnc32)CC1 (centres unmarked) [Example 17A (sulfoxide), 4-(8-Chloro-5,11-dihydro-[1]benzothiepino[4,3-b]pyridin-11-yl)-1-(4-pyridine-acetyl)piperazine N1,6,-dioxide]",< 5.40
2,"4-(8-Chloro-5,11-dihydro-[1]benzothiepinof4,3-b]pyridin-11-yl)-1-(4-pyridine-acetyl)piperazine N1,6,6-trioxide [Example 17B]",< 5.92
3,"O=C(Cc1ccncc1)N1CCN(C2c3ccc(Cl)cc3[S+]([O-])Cc3cccnc32)CC1 (centres unmarked) [Example 31, 4-(8-Chloro-5,11-dihydro-[1]benzothiepino[4,3-b]pyridin-11-yl)-1-(4-pyridine-acetyl)piperazine-6-oxide]",5.30
4,"O=C(Cc1cc[n+]([O-])cc1)N1CCN(C2c3ccc(Cl)cc3S(=O)(=O)Cc3cccnc32)CC1 (centres unmarked) [Example 17A (sulfone), 4-(8-Chloro-5,11-dihydro-[1]benzothiepino[4,3-b]pyridin-11-yl)-1-(4-pyridine-acetyl)piperazine N1,6,6-trioxide]",5.47
5,"O=C(Cc1ccncc1)N1CCN(C2c3ccc(Cl)cc3S(=O)(=O)Cc3cccnc32)CC1 (centres unmarked) [Example 16A, 4-(8-Chloro-5,11-dihydro-[1]benzothiepino[4,3-b]pyridin-11-yl)-1-(4-pyridine-acetyl)piperazine 6,6-dioxide]",6.00
